Laboratory results: patent publication US20060135587A1, “Method and compounds for promoting healing and reducing inflammation” (priority 2002, published 2006)
Like-named read-outs stand apart in the source and are kept apart here.

How the values were obtained:
[1] = system: experimental granuloma; test: Cotton-wool granuloma (chronic proliferative inflammation) in rats; assay type: in vivo
Protocol: We investigated the ability of compound (2) to reduce the formation of granulation tissue in the inflammatory focus which develops at the site at which a non-sterile cotton-wool roll weighing 40 mg is implanted subcutaneously (Swingle and Shideman, 1972). Compound (2) was administered orally to male rats weighing 130-150 g at a dose of 100 mg/kg for 6 days before the cotton-wool roll was implanted, and then for 6 days at the same dose while the granuloma developed. Anti-inflammatory agents, such as ibuprofen and butadione, were used for comparison, using the same procedure. There were 10 rats in each group.
After 12 days the experiment was terminated, and the granulomas were excised, weighed, and the wet weight of the granulation tissue was measured. The dry mass of the granuloma was measured after drying for 24 hours at 70° C., and the exudative and proliferative stages of the granulomas were calculated. Statistical analysis was performed using the Student's parametric test.

[2] = oral dose used for the comparative medication; cited from earlier work
[3] = system: cryogenic injuries of the sigmoid colon; test: Cryogenic damage of the colon, model of ulcerative colitis; assay type: in vivo, rats; settings: oral
Protocol: A model of cryogenic damage of the colon was used in this experiment to simulate ulcerative colitis. Cryogenic injuries of the sigmoid colon of rats were induced by pressing a metal rod of […] in diameter cooled in liquid nitrogen to the serous membrane of the colon for 10 seconds under ether anaesthesia.
Tests were performed on 67 male rats weighing 180-200 g, with 8 animals in each group. Animals were kept in separate cages, with normal food and water ad libitum. The test compounds were administered orally on the second day after the operation, and then daily until healing was complete. Compound 2 or Compound 6 was administered to test animals at a dose of 20-50 mg/kg. The following agents were used for comparison:
The nature of the healing of the ulcer injury was examined morphologically on days 1, 3 and 7. […] The inflammatory process extends beyond the injured area into the adjacent areas, and beyond the peritoneum into fatty connective tissue.

[4] = system: regeneration of liver after partial hepatectomy; test: Liver regeneration after partial hepatectomy in rats; assay type: in vivo; settings: for Catalase E activity / DNA content (in mg/g of tissue) / Protein content / RNA content (mg/g of tissue) / SOD activity: 0.2 mM/kg; for Level of recovery: 0.2 mM/kg intraperitoneally, 7 days, hepatectomy alone = 100
Protocol: Partial hepatectomy was performed using the conventional method (Higgins and Anderson, 1931) by removing the left lateral and central lobes of the liver from 80 male white rats, weighing 180-200 g.
Compound 2, Compound 4, Compound 5 or Compound 6 was administered to the experimental groups intraperitoneally in equimolar doses of 0.1 mM/kg and 0.2 mM/kg. These optimal doses were determined in preliminary experiments. The control group received intraperitoneal injections of saline solution. The compounds were administered on the day after the operation and then one injection was given daily over the course of 7 days, since maximum growth of the liver mass in rats is observed in the first 7 days after partial hepatectomy (Solopaev, 1980).
The effectiveness of the compounds was compared to that of a combination of non-steroid anabolic regeneration stimulators which are used in the treatment of liver pathology, namely Riboxin and potassium orotate at a dose of 0.2 mM/kg each (Rychnev and Frolov, 1984).
For quantitative evaluation of the regeneration process in the liver the coefficient of regeneration completion as determined by the formula below was used: [formula] where
Stimulation of the regeneration of tissue after hepatectomy in response to different medicinal preparations is associated with an increase in the synthesis of nucleic acids, as indicated by the increase in the content of RNA and DNA in the regenerated tissue. Quantitative analysis of DNA and RNA was performed by centrifugation. […] The enzymic component of anti-oxidant protection was also assessed on the basis of the activity of catalase and superoxidedismutase (SOD).
5 ml of […] of HCIO4 solution were added to the sample (100 mg). In order to ensure complete sedimentation of the acid-insoluble fraction, the beakers were put in ice for 15 minutes. Then they were centrifuged for 10 minutes at 5000 revolutions per minute. The sediment was washed twice with 0.2 M HCIO4. After the final centrifugation, the walls of the beaker were carefully dried with gauze and filter paper. The sediment was ground down with a glass pestle, suspended in 1 ml of water and then 1 ml of 0.6 M KON solution was added at room temperature. Hydrolysis was performed over the course of 1 hour at 37° C., then the beakers were put in ice to stop the hydrolysis process. 4 ml of the 0.6 M solution were added to each beaker and the beakers were left in ice for another 15 minutes, then centrifuged for 15 minutes at 5000 revolutions per minute. The supernatant was used to determine the RNA by UV absorption at 260 nm and 290 nm compared to the control sample containing 0.4M of HCIO4). The amount of RNA in μg per 1 ml of the supernatant was calculated using the following formula: [formula] where C=is the RNA concentration (μg/ml)
DNA analysis was carried out on the sediment remaining after the alkaline hydrolysis used to determine RNA. 0.5 M of HCIO4 (5 ml per sample) was poured into the dried beaker containing the sediment. Hydrolysis was performed in a boiling water bath for 20 minutes. The amount of DNA in μg per 1 ml of the hydrolysate was calculated using the following formula: [formula] where C=is the DNA concentration (μg/ml). Catalase Activity
Catalase activity was determined using the permanganate method. The optimal amount of the substrate (3 ml of 1% H2O2) and 1 ml of the enzyme were added to 10 ml of phosphate buffer, pH 7.8. After 10 minutes the reaction was stopped by adding 1.5 ml of H2SO4 (50%). The remaining hydrogen peroxide was filtered with 0.1M of KMnO4 solution. Catalase activity was calculated on the basis that 1 ml of 0.1M of KMnO4 solution corresponds to […] of H2O2.
SOD activity was determined using the dianisidine method, which is based on the fact that under ultraviolet irradiation Riboflavin (Rb) is converted to an excited (ionised) state and therefore becomes able to attack reduced dianisidine (DH2). […]

[5] = system: liver after partial hepatectomy; test: Morphological study of the liver after partial hepatectomy; assay type: in vivo, rats
Protocol: Morphological methods are highly informative in the assessment of repair processes. Histological tests of the liver after partial hepatectomy were performed using generally accepted methods. Microscopic sections were stained with hematoxylin and eosin using Van Gieson's methodology. Liver tests after partial hepatectomy were performed on 8 groups of animals, totalling 37 rats. All animals were examined one week after hepatectomy.

[6] = system: acute Con A-induced inflammation; test: Acute Con A-induced inflammation (paw oedema) in mice; assay type: in vivo; settings: Table 3, male CBA mice
Protocol: Saline solution was similarly administered to the control animals. There were 10 mice in each group. After one hour, con A at a dose of 100 mkg/20 g of body weight was administered by sub-plantar injection into the plantar aponeurosis of the left paws of mice of both the experimental and control groups. The same amount of saline splution was injected into the contralateral paws. After one hour, the mice were killed and the experimental and control paws were weighed to assess the reaction index of the inflammation in the ankle-joint (Liubimov et al, 1999).
The anti-inflammatory effect of Compound 2 and Compound 7 was compared in male mice weighing 18-22 g, using the model described in Example 9. The ED50, i.e. the dose reducing paw ooedema by 50% one hour after injection of Concanavalin A, was calculated.

[7] = system: lesions of the gastric mucosa; test: Gastric lesions induced by electrostimulation of immobilised rats; assay type: in vivo
Protocol: (§1) The models used gastric ulcers induced by
a) Electrostimulation of immobilised rats for 3 hours;
(§2) The compounds were administered intraperitoneally at a dose of 20 mg/kg; in the cryogenic ulcer model compound 2 was administered either intraperitoneally (10 mg/kg) or orally (20 mg/kg twice daily, ie. a total of 40 mg/kg/day) and was compared to orally-administered gastrocepin (1 mg/kg twice daily, ie. a total of 2 mg/kg/day).

[8] = system: lesions of the gastric mucosa; test: Gastric lesions induced by immobilization and hypothermia; assay type: in vivo, rats; set-up: % reduction of degree of ulceration / % reduction of ulcerated area: concentration or dose not given beside the values; settings: Protective effect, 30 minutes before the test
Protocol: as §1
b) Immobilization and hypothermia (induced by water cooling);
as §2

[9] = system: cryogenic ulcer of the gastric mucosa; test: Cryogenic gastric ulcer in rats; assay type: in vivo; settings: healing effect over the course of 14 days; twice daily, oral
Protocol: as §1
c) Ulcer created by local wounding with a cryogenic probe using a method similar to that described above for mouth ulcers.
as §2

[10] = system: gastric secretory function; test: Gastric secretory function, chronic or acute tests; assay type: in vivo; settings: dogs or rats
[11] = system: white male mice
Protocol: (§3) The acute toxicity of 1,3-dialkyl-4,5-bis (N-methylcarbamoyl)imidazolium salts was assessed following intraperitoneal injection into 200 white male mice weighing 18 to 20 g. Dead animals were counted daily after the administration of the test substance.

[12] = system: carrageenin-induced inflammation; test: Carrageenin-induced inflammation in intact and adrenalectomized rats; assay type: in vivo
Protocol: An acute inflammatory oedema was induced in intact and adrenalectomized male rats weighing 180-200 g by sub-plantar injection of 0.1 ml of 1% carrageenin solution into the left paw (Winter et al., 1962). The same volume of saline solution was injected into the contralateral paw. […] There were 10 rats in each group.
The degree of carrageenin-induced inflammation of the ankle joints was assessed at 3 hours after the induction of the inflammation, on the basis of the change in weight of the experimental and control paws (reaction index).

[13] = in vivo; settings: male, mouse, ip
Protocol: as §3

[14] = 0.2 MM/kg, one week after hepatectomy
[15] = 50 mg/kg intra-peritoneally one hour before Con A
[16] = 10 mg/kg intra-peritoneally one hour before Con A
[17] = Healing effect over the course of 3 days
[18] = Protective effect, 30 minutes before the test
[19] = Adrenalectomized animals, 48 mg/kg orally 4 days + carrageenin

CCCCC1C(=O)N(c2ccccc2)N(c2ccccc2)C1=O [Butadione]
Granuloma weight (mg) Dry weight ([1]; 60 mg/kg): 145.4 ± 7.45 mg
Granuloma weight (mg) Exudative stage ([1]; 60 mg/kg): 682.6 mg
Granuloma weight (mg) Fresh weight ([1]; 60 mg/kg): 828.0 ± 76.68 mg
Granuloma weight (mg) Proliferative stages ([1]; 60 mg/kg): 105.4 mg
ED50 values from the literature [2]: 60 mg/kg

1-methyl-3-ethyl-4,5-bis(N-methylcarbamoyl)-imidazolium salicylate [Compound 6]
indicators of healing relative to Compound 2 [3]: less pronounced
Catalase E activity [4]: 20.0 ± 2.7 μgM/min/g tissue × 1000
DNA content (in mg/g of tissue) [4]: 3.88 ± 0.17 mg/g of tissue
Protein content [4]: 93.0 ± 14.0 Mg/g tissue
RNA content (mg/g of tissue) [4]: 7.41 ± 0.16 mg/g of tissue
SOD activity [4]: 100.0 ± 4.7 Units/g tissue
Level of recovery [4]: 105.0
histological findings in the liver [5, 14]: showed no undesirable effects

CC[n+]1cn(C)c(C(=O)NC)c1C(=O)NC.O=C([O-])c1ccccc1 [Compound 5, 1-methyl-3-ethyl-4,5-bis(N-methylcarbamoyl)-imidazolium benzoate]
Reaction index (%) [6, 15]: 7.2 ± 1.8 %
Catalase E activity [4]: 17.3 ± 2.6 μgM/min/g tissue × 1000
DNA content (in mg/g of tissue) [4]: 3.76 ± 0.29 mg/g of tissue
Protein content [4]: 86.8 ± 6.9 Mg/g tissue
RNA content (mg/g of tissue) [4]: 7.46 ± 0.14 mg/g of tissue
SOD activity [4]: 103.0 ± 4.4 Units/g tissue
Level of recovery [4]: 120.3
histological findings in the liver [5, 14]: some of the animals demonstrated hepatocyte hypertrophy combined with subacute hepatitis

1,3-diethyl-4,5-bis(N-methylcarbamoyl)-imidazolium benzenesulfonate [Compound 3]
Reaction index (%) [6, 16]: 9.5 ± 2.5 %
Reaction index (%) [6, 15]: 9.5 ± 2.0 %
% reduction of degree of ulceration [7, 17]: 26.5%
Average number of lesions per animal [7, 17]: 2.5 ± 0.4
% reduction of degree of ulceration [7, 18]: 50%
% reduction of ulcerated area [7, 18]: 54%
Area of lesion [7, 18]: 7.1 ± 4.1
Average number of lesions per animal ([7]; Protective effect, 30 minutes before the test, 20 mg/kg intraperitoneally): 3.5 ± 0.4
% reduction of degree of ulceration [8]: 41%
% reduction of ulcerated area [8]: 41%
Area of lesion [8]: 7.2 ± 2.0
Average number of lesions per animal ([8]; 20 mg/kg intraperitoneally): 6.8 ± 1.4
% reduction of degree of ulceration [9]: 59%
Average number of lesions per animal [9]: 7.7 ± 2.5
effect on gastric secretory function [10]: did not affect gastric secretory function
LD50 [11]: over 500 mg/kg
toxicity [11]: very low toxicity
LD50 ([11]; intraperitoneal injection, white male mice, 14 days observation): 1292 mg/kg

CC(C)Cc1ccc(C(C)C(=O)O)cc1 (centres unmarked) [Ibuprofen, ibuprofen]
Inhibition of oedema(%) ([12]; 48 mg/kg 4 days + carrageenin): 63.39%
Reaction index (%) ([12]; 48 mg/kg 4 days + carrageenin): 15.88 ± 1.88 %
Inhibition of oedema(%) [12, 19]: 57.90%
Reaction index (%) [12, 19]: 18.12 ± 1.82 %
Granuloma weight (mg) Dry weight ([1]; 48 mg/kg): 143.2 ± 9.83 mg
Granuloma weight (mg) Exudative stage ([1]; 48 mg/kg): 670.8 mg
Granuloma weight (mg) Fresh weight ([1]; 48 mg/kg): 814.0 ± 63.72 mg
Granuloma weight (mg) Proliferative stages ([1]; 48 mg/kg): 103.2 mg
ED50 values from the literature [2]: 48 mg/kg

CC[n+]1cn(C)c(C(=O)NC)c1C(=O)NC [Compound 4, 1-methyl-3-ethyl-4,5-bis(N-methylcarbamoyl)-imidazolium chloride]
Reaction index (%) [6, 16]: 14.1 ± 2.0%
Reaction index (%) [6, 15]: 12.4 ± 0.4 %
Catalase E activity [4]: 18.0 ± 2.6 μgM/min/g tissue × 1000
DNA content (in mg/g of tissue) [4]: 3.72 ± 0.09 mg/g of tissue
Protein content [4]: 85.5 ± 10.6 Mg/g tissue
RNA content (mg/g of tissue) [4]: 7.14 ± 0.2 mg/g of tissue
SOD activity [4]: 90.0 ± 3.3 Units/g tissue
Level of recovery [4]: 128.3
histological findings in the liver ([5]; rat, in vivo): showed no undesirable effects
toxicity [11]: very low toxicity
LD50 at 14 days [13]: 1220 mg/kg
